Assay results: PubChem BioAssay (NCI)
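Following 48 hours of exposure in 96-well plates, responses at five concentrations were used to interpolate endpoints linearly. TGI: concentration producing complete growth inhibition.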

Tests used:
Test in all cases: DTP human tumour cell line panel, 48 h
[1] = system: MALME-3M melanoma
[2] = system: SF-295 CNS
[3] = system: NCI-H226 lung
[4] = system: HT29 colon
[5] = system: LOX IMVI melanoma
[6] = system: SK-MEL-2 melanoma
[7] = system: NCI-H460 lung
[8] = system: BT-549 breast
[9] = system: SK-MEL-5 melanoma
[10] = system: HCC-2998 colon
[11] = system: MDA-MB-231 breast
[12] = system: HOP-92 NSCLC
[13] = system: SNB-75 CNS
[14] = system: HCT-116 colon
[15] = system: MDA-MB-435
[16] = system: KM12 colon
[17] = system: NCI-H522 lung
[18] = system: ACHN renal
[19] = system: UACC-257 melanoma
[20] = system: A549 NSCLC
[21] = system: COLO 205 colon
[22] = system: U251 CNS
[23] = system: UACC-62 melanoma
[24] = system: SK-MEL-28 melanoma
[25] = system: SK-OV-3 ovarian
[26] = system: SW-620 colon
[27] = system: SF-268 CNS
[28] = system: EKVX NSCLC
[29] = system: CAKI-1 renal
[30] = system: DU-145 prostate
[31] = system: OVCAR-8 ovarian
[32] = system: OVCAR-3 ovarian
[33] = system: OVCAR-4 ovarian
[34] = system: A498 renal
[35] = system: MCF7 breast
[36] = system: UO-31 renal
[37] = system: HOP-62 NSCLC
[38] = system: IGROV1 ovarian
[39] = system: NCI-H23 lung
[40] = system: CCRF-CEM leukemia
[41] = system: 786-0 renal
[42] = system: SN12C renal
[43] = system: SNB-19 CNS
[44] = system: HS 578T breast
[45] = system: OVCAR-5 ovarian
[46] = system: MDA-N
[47] = system: NCI/ADR-RES ovarian
[48] = system: T-47D breast
[49] = system: TK-10 renal
[50] = system: RXF 393 renal
[51] = system: HCT-15 colon
[52] = system: PC-3 prostate
[53] = system: SF-539 CNS
[54] = system: K-562 leukemia
[55] = system: MOLT-4 leukemia
[56] = system: HL-60(TB) leukemia
[57] = system: M14 melanoma
[58] = system: RPMI-8226 leukemia

Measured: TGI

CCCCCC(=O)OCC1(CO)C/C(=C/CC(C(C)C)C(C)C)C(=O)O1 (configuration not stated)
37.4 µM: [16]
65.6 µM: [1]
20.5 µM: [5]
68.7 µM: [40]
66.8 µM: [29]
38.2 µM: [36]
37.2 µM: [38]
27.7 µM: [17]
not listed: [53] | [54] | [55] | [56] | [57] | [58]
> 75 µM: all other assays above

CC1CC/C(=C\c2ccc(F)cc2)C2=C1C(c1ccc(F)cc1)NC(=S)N2 (configuration not stated)
79.3 µM: [28]
98.7 µM: [34]
70.8 µM: [48]
87.3 µM: [1]
not listed: [10] | [12] | [13] | [17] | [20] | [33] | [37] | [45]
> 100 µM: all other assays above
